Test results reported in patent publication US11446253B2, “Ionic liquids for internal delivery” (priority 2017, dated 2022).
≈ marks a conversion by molar mass, not a printed value. Where “and” joins values, the source holds several entries; their conditions need not be identical. Equal entries are not always repeated. Entries after “also recorded” stand apart in the source; their conditions may differ. Where two headings read alike, the source gives them in different places.

How the values were obtained:
[1] = in vivo; cited from earlier work
4T1 cells = test: 4T1 cell viability, calcein-AM assay; type: cell-based; conditions: drug solubilized in CAGE (1:1) vs DMSO
Protocol: In vitro anticancer efficacy of drug-loaded liposomes was determined using calcein-AM cell viability assay (Life Technologies). 4T1 cells were seeded in a 96-well cell culture plate at a density of 11,000 cells per well or 1,000 cells per well in a total volume of 100 μL media and allowed to adhere overnight. […] After incubation with drug, media was aspirated and replaced with 1 μM calcein-AM in PBS for 30 minutes at room temperature. Fluorescence intensity of intracellularly hydrolyzed calcein-AM was measured using excitation and emission wavelengths of 490 nm and 520 nm. Fractional cell inhibition was calculated by subtracting fluorescence of live cells in experimental wells from those of untreated cells and normalizing against untreated cells.

[2] = Solubility of hydrophobic drugs in CAGE; conditions: organic solvent or mixture
[3] = tested on: non-diabetic male Wistar rats; test: In vivo bioactivity of insulin isolated from CAGE after storage; parameters: species or system rat; conditions: for blood glucose, % of initial level: 1 U/kg subcutaneous
Excerpt: Prior to insulin injections, rats were fasted overnight but given free access to water and fasting continued throughout the study to eliminate variability in blood glucose due to food consumption. The results were plotted as % change in blood glucose compared to initial level vs time.

rats = conditions: cited from earlier work
physchem = conditions: organic solvent or mixture
Caco-2 cells = test: Tight junction integrity (TEER) in Caco-2 cells; type: cell-based, human; conditions: 10 mM sodium caprate, end of study at 24 h
Protocol: […] Furthermore, TEER was measured at every time point when aliquots were withdrawn from the transwells and plotted as % change from initial value vs time.
TEER values were recorded for each insert. […] TEER was plotted as % change from initial value vs time.

**Q.** With “orally administered insulin solution: literature comparator of Ansari et al.” as the compound, how does the oral bioavailability [1] read?
**A.** 1.7%

**Q.** What does the source list for `CC[C@@]1(O)C(=O)OCc2c1cc1n(c2=O)Cc2cc3ccccc3nc2-1` [Camptothecin]?
**A.** effect on 4T1 cells (4T1 cells): just as effective as those solubilized in DMSO; solubility [2]: 54 mg/mL (≈ 155 mM)

**Q.** Which results are given for “insulin isolated from CAGE: insulin stored in CAGE, isolated by centrifugation and washing, re-suspended in sterile saline”?
**A.** bioactivity after storage ([3]; stored at 4° C. with CAGE, 4 months): did not show any loss in bioactivity; also recorded: retained its bioactivity; blood glucose, % of initial level ([3]; stored in CAGE at RT for 3 months, 1 h): 61.57±2.38% and 62±2%; blood glucose, % of initial level ([3]; stored in CAGE at RT for 3 months, 2 h): 61.98±3.19% and 62±3%; drop in blood glucose ([3]; stored in CAGE at RT for 3 months, 1 and 2 h after injection): 38%

**Q.** Which “oral LD50” value (rats; rat, in vivo, po) does the source give for `CC(C)=CCC/C(C)=C/C(=O)O` [geranic acid] here?
**A.** 3,700 mg/kg

**Q.** Which “oral LD50” value (rats; oral) does the source give for `C[N+](C)(C)CCO` [Choline] here?
**A.** 3,400 mg/kg

**Q.** With `CC(=O)O[C@H]1C(=O)[C@@]2(C)[C@H]([C@H](OC(=O)c3ccccc3)[C@]3(O)C[C@H](OC(=O)[C@H](O)[C@@H](NC(=O)c4ccccc4)c4ccccc4)C(C)=C1C3(C)C)[C@]1(OC(C)=O)CO[C@@H]1C[C@@H]2O` [Paclitaxel] as the compound, how does the “effect on 4T1 cells” value (4T1 cells) read?
**A.** just as effective as those solubilized in DMSO

**Q.** And the solubility (physchem)?
**A.** 200 mg/mL (≈ 234 mM)

**Q.** Which “tight junction integrity (TEER), % of initial levels” value (Caco-2 cells) does the source give for `CCCCCCCCCC(=O)[O-].[Na+]` [sodium caprate, reference compound] here?
**A.** 36%
